Source: BindingDB's records for doi:10.1021/jm960078j (University of Arizona, 1996)

Experiment: Binding affinity towards Opioid receptor delta 1 was determined in guinea pig whole brain using [3H][4''-Cl-Phe4]-DPDPE as radioligand
In the case of `CCCC[C@@H](C(=O)N[C@@H](CC(=O)O)C(=O)N[C@@H](Cc1ccccc1)C(N)=O)N(C)C(=O)[C@@H](NC(=O)CNC(=O)[C@@H](Cc1ccccc1)NC(=O)[C@H](Cc1ccc(O)cc1)NC(=O)[C@@H](N)CC(=O)O)[C@@H](C)c1c[nH]c2ccccc12`, the IC50 is reported as 140 nM.
Molecule `CCCC[C@@H](C(=O)N[C@@H](CC(=O)O)C(=O)N[C@@H](Cc1ccccc1)C(N)=O)N(C)C(=O)[C@H](NC(=O)CNC(=O)[C@@H](Cc1ccccc1)NC(=O)[C@H](Cc1ccc(O)cc1)NC(=O)[C@@H](N)CC(=O)O)[C@@H](C)c1c[nH]c2ccccc12` has an IC50 of 1050 nM.
With `CCCC[C@@H](C(=O)N[C@@H](CC(=O)O)C(=O)N[C@@H](Cc1ccccc1)C(N)=O)N(C)C(=O)[C@H](NC(=O)CNC(=O)[C@@H](Cc1ccccc1)NC(=O)[C@H](Cc1ccc(O)cc1)NC(=O)[C@@H](N)CC(=O)O)[C@H](C)c1c[nH]c2ccccc12` the IC50 was 820 nM.
In the case of `CCCC[C@@H](C(=O)N[C@@H](CC(=O)O)C(=O)N[C@@H](Cc1ccccc1)C(N)=O)N(C)C(=O)[C@H](Cc1c[nH]c2ccccc12)NC(=O)CNC(=O)[C@@H](Cc1ccccc1)NC(=O)[C@H](Cc1ccc(O)cc1)NC(=O)[C@@H](N)CC(=O)O` [(3S)-3-[(2S)-2-[(2S)-2-{2-[(2R)-2-[(2S)-2-[(3S)-3-amino-3-formamidopropanoic acid]-3-(4-hydroxyphenyl)propanamido]-3-phenylpropanamido]acetamido}-3-(1H-indol-3-yl)-N-methylpropanamido]hexanamido]-3-{[(1S)-1-carbamoyl-2-phenylethyl]carbamoyl}propanoic acid], the IC50 is reported as 29 nM.
